Test results taken from US20240174643A1, “SOS1 PROTEIN DEGRADERS, PHARMACEUTICAL COMPOSITIONS THEREOF, AND THEIR THERAPEUTIC APPLICATIONS” (Bio TheryX, Inc., priority 2021, published 2024).

Legend:
Assay type in all cases: cell-based
Lovo (G13D) cells = experiment: Cell viability assay (CELLTITER-GLO), Lovo cells; conditions: Homo sapiens, 72 h, 3 days at 37° C., CELLTITER-GLO luminescence, read-out: Inhibition of Cancerous Cells IC50 (μM) Lovo (G13D)
Protocol: (§1) AsPC-1, 1358, and SW48 cells were cultured in RPMI 1640 media supplemented with 10% fetal bovine serum, streptomycin, and penicillin. Lovo and SW480 cells were cultured in DMEM media supplemented with 10% fetal bovine serum, streptomycin, and penicillin. The cell lines were plated in their respective medium supplemented with 2.5% fetal bovine serum, streptomycin, and penicillin. All cell lines were plated in white walled 96-well plates at 2,000 cells/well or 384-well plates at 500 cells/well, except Lovo, which were plated at 4,000 or 1,000 cells/well, respectively. The cells were incubated in DMSO (control) or a compound for 3 days at 37° C. under 5% CO2. A CELLTITER-GLO® reagent (100 μL) was then added to each well. After a 10 min incubation with shaking, luminescence was measured using an ENVISION® multimode plate reader.

SW48 (wt) cells = experiment: Cell viability assay (CELLTITER-GLO), SW48 cells; conditions: Homo sapiens, 72 h, 3 days at 37° C., CELLTITER-GLO luminescence, read-out: Inhibition of Cancerous Cells IC50 (μM) SW48 (wt)
Protocol: as §1

SW480 (G12V) cells = experiment: Cell viability assay (CELLTITER-GLO), SW480 cells; conditions: Homo sapiens, 72 h, 3 days at 37° C., CELLTITER-GLO luminescence, read-out: Inhibition of Cancerous Cells IC50 (μM) SW480 (G12V)
Protocol: as §1

H358 (G12C) cells = experiment: Cell viability assay (CELLTITER-GLO), H358 cells; conditions: Homo sapiens, NCI-H358, 72 h, 3 days at 37° C., CELLTITER-GLO luminescence, read-out: Inhibition of Cancerous Cells IC50 (μM) H358 (G12C)
Protocol: as §1

AsPC-1 (G12D) cells = experiment: Cell viability assay (CELLTITER-GLO), AsPC-1 cells; conditions: Homo sapiens, ASPC1, 72 h, 3 days at 37° C., CELLTITER-GLO luminescence, read-out: Inhibition of Cancerous Cells IC50 (μM) AsPC-1 (G12D)
Protocol: as §1

IC50 (Lovo (G13D) cells) [µM] | IC50 (SW48 (wt) cells) [µM] | IC50 (SW480 (G12V) cells) [µM] | IC50 (H358 (G12C) cells) [µM] | IC50 (AsPC-1 (G12D) cells) [µM] | Structure (SMILES)
0.42 | 1.5 | 0.94 | > 10 |  | COc1cc2c(N[C@H](C)c3cccc(Br)c3)nc(C)nc2cc1OCCCCCCCCCN1CCN(C(=O)CNc2cccc3c(C4CCC(=O)NC4=O)nn(C)c23)CC1 (stereo partly drawn) [Compound D5, 3-(7-((2-(4-(9-((4-(((R)-1-(3-Bromophenyl)ethyl)amino)-6-methoxy-2-methyl-quinazolin-7-yl)oxy)nonyl)piperazin-1-yl)-2-oxoethyl)amino)-1-methyl-1H-indazol-3-yl)-piperidine-2,6-dione]
1.9 | 2.5 | 1.1 | 4.5 | 4.7 | COc1cc2c(N[C@@H](C)c3cccc(Br)c3)nc(C)nc2cc1OCCCCCCCCCN1CCN(C(=O)CNc2cccc3c(N4CCC(=O)NC4=O)nn(C)c23)CC1 [Compound D9, (S)-1-(7-((2-(4-(9-((4-((1-(3-Bromophenyl)ethyl)amino)-6-methoxy-2-methyl-quinazolin-7-yl)oxy)nonyl)piperazin-1-yl)-2-oxoethyl)amino)-1-methyl-1H-indazol-3-yl)dihydropyrimidine-2,4(1H,3H)-dione]
2.5 | 3.6 | 3.4 | 3.2 | 5.1 | COc1cc2nc(C)nc(N[C@H](C)c3cccc(Br)c3)c2cc1OC [reference compound]
0.34 | 1.1 | 0.66 | 1.1 |  | COc1cc2c(N[C@H](C)c3cccc(Br)c3)nc(C)nc2cc1OCCCCCCCN1CCN(C(=O)CNc2cccc(C3CCC(=O)NC3=O)c2)CC1 (stereo partly drawn) [Compound B1, 3-(3-((2-(4-(7-((4-(((R)-1-(3-bromophenyl)ethyl)amino)-6-methoxy-2-methylquinazolin-7-yl)oxy)heptyl)piperazin-1-yl)-2-oxoethyl)amino)phenyl)piperidine-2,6-dione]
0.37 | 0.85 | 0.65 | 1.6 |  | COc1cc2c(N[C@H](C)c3cccc(Br)c3)nc(C)nc2cc1OCCCCCCCN1CCN(C(=O)CNc2cccc3c(C4CCC(=O)NC4=O)nn(C)c23)CC1 (stereo partly drawn) [Compound D4, 3-(7-((2-(4-(7-((4-(((R)-1-(3-Bromophenyl)ethyl)amino)-6-methoxy-2-methyl-quinazolin-7-yl)oxy)heptyl)piperazin-1-yl)-2-oxoethyl)amino)-1-methyl-1H-indazol-3-yl)-piperidine-2,6-dione]
1.3 | 1.1 | 1.1 | 1.7 | 2.8 | COc1cc2c(N[C@H](C)c3cccc(Br)c3)nc(C)nc2cc1OCCCCCN1CCN(C(=O)CNc2ccc(C3CCC(=O)NC3=O)cc2)CC1 (stereo partly drawn) [Compound B8, 3-(4-((2-(4-(5-((4-(((R)-1-(3-Bromophenyl)ethyl)amino)-6-methoxy-2-methyl-quinazolin-7-yl)oxy)pentyl)piperazin-1-yl)-2-oxoethyl)amino)phenyl)piperidine-2,6-dione]
0.55 | 1.7 | 0.48 | 2.9 |  | COc1cc2c(N[C@H](C)c3cccc(Br)c3)nc(C)nc2cc1OCCCCCCCCCCCN1CCN(C(=O)CNc2cccc(C3CCC(=O)NC3=O)c2)CC1 (stereo partly drawn) [Compound B3, 3-(3-((2-(4-(11-((4-(((R)-1-(3-Bromophenyl)ethyl)amino)-6-methoxy-2-methyl-quinazolin-7-yl)oxy)undecyl)piperazin-1-yl)-2-oxoethyl)amino)phenyl)piperidine-2,6-dione]
0.76 | 2.4 | 1.7 | 6.4 |  | COc1cc2c(N[C@H](C)c3cccc(Br)c3)nc(C)nc2cc1OCCCCCCCCCCCN1CCN(C(=O)CNc2cccc3c(C4CCC(=O)NC4=O)nn(C)c23)CC1 (stereo partly drawn) [Compound D6, 3-(7-((2-(4-(11-((4-(((R)-1-(3-Bromophenyl)ethyl)amino)-6-methoxy-2-methylquinazolin-7-yl)oxy)undecyl)piperazin-1-yl)-2-oxoethyl)amino)-1-methyl-1H-indazol-3-yl)piperidine-2,6-dione]
0.64 | 0.48 | 0.61 | 1.4 |  | COc1cc2c(N[C@H](C)c3cccc(Br)c3)nc(C)nc2cc1OCCCCCCCCCCCN1CCN(C(=O)CNc2ccc3c(C4CCC(=O)NC4=O)nn(C)c3c2)CC1 (stereo partly drawn) [Compound D3, 3-(6-((2-(4-(11-((4-(((R)-1-(3-Bromophenyl)ethyl)amino)-6-methoxy-2-methyl-quinazolin-7-yl)oxy)undecyl)piperazin-1-yl)-2-oxoethyl)amino)-1-methyl-1H-indazol-3-yl)-piperidine-2,6-dione]
0.55 | 1.2 | 0.97 | 1.7 |  | COc1cc2c(N[C@H](C)c3cccc(Br)c3)nc(C)nc2cc1OCCCCCCCCCN1CCN(C(=O)CNc2ccc3c(C4CCC(=O)NC4=O)nn(C)c3c2)CC1 (stereo partly drawn) [Compound D2, 3-(6-((2-(4-(9-((4-(((R)-1-(3-bromophenyl)ethyl)amino)-6-methoxy-2-methylquinazolin-7-yl)oxy)nonyl)piperazin-1-yl)-2-oxoethyl)amino)-1-methyl-1H-indazol-3-yl)piperidine-2,6-dione]
0.23 | 1.1 | 0.49 | 0.93 |  | COc1cc2c(N[C@H](C)c3cccc(Br)c3)nc(C)nc2cc1OCCCCCCCN1CCN(C(=O)CNc2ccc(C3CCC(=O)NC3=O)cc2)CC1 (stereo partly drawn) [Compound B4, 3-(4-((2-(4-(7-((4-(((R)-1-(3-bromophenyl)ethyl)amino)-6-methoxy-2-methylquinazolin-7-yl)oxy)heptyl)piperazin-1-yl)-2-oxoethyl)amino)phenyl)piperidine-2,6-dione]
1.1 | 1.8 | 1.4 | 2.9 |  | COc1cc2c(N[C@H](C)c3cccc(Br)c3)nc(C)nc2cc1OCCCCCCCN1CCN(C(=O)CNc2ccc3c(C4CCC(=O)NC4=O)nn(C)c3c2)CC1 (stereo partly drawn) [Compound D1, 3-(6-((2-(4-(7-((4-(((R)-1-(3-Bromophenyl)ethyl)amino)-6-methoxy-2-methyl-quinazolin-7-yl)oxy)heptyl)piperazin-1-yl)-2-oxoethyl)amino)-1-methyl-1H-indazol-3-yl)-piperidine-2,6-dione]
0.48 | 3.7 | 0.3 | 2.1 |  | COc1cc2c(N[C@H](C)c3cccc(Br)c3)nc(C)nc2cc1OCCCCCCCCCCCN1CCN(C(=O)CNc2ccc(C3CCC(=O)NC3=O)cc2)CC1 (stereo partly drawn) [Compound B6, 3-(4-((2-(4-(11-((4-(((R)-1-(3-bromophenyl)ethyl)amino)-6-methoxy-2-methyl-quinazolin-7-yl)oxy)undecyl)piperazin-1-yl)-2-oxoethyl)amino)phenyl)piperidine-2,6-dione]
0.19 | 1.2 | 0.45 | 2 |  | COc1cc2c(N[C@H](C)c3cccc(Br)c3)nc(C)nc2cc1OCCCCCCCCCN1CCN(C(=O)CNc2ccc(C3CCC(=O)NC3=O)cc2)CC1 (stereo partly drawn) [Compound B5, 3-(4-((2-(4-(9-((4-(((R)-1-(3-Bromophenyl)ethyl)amino)-6-methoxy-2-methyl-quinazolin-7-yl)oxy)nonyl)piperazin-1-yl)-2-oxoethyl)amino)phenyl)piperidine-2,6-dione]
